This is an account of results in patent US4755610A, “Hapalindoles” (priority 1986, dated 1988).

SMILES strings stand for the structures. In brackets after ≈: the same amount, converted by molar mass. Bounds are passed on as bounds.

Format in all cases: cell-based
In assay [1] the test system is Streptococcus pneumoniae Park 1. The assay is described as follows: In vitro antibacterial activity, standard agar-dilution assay. The settings on record: PARK1; Streptococcus pneumoniae Park 1; agar dilution; read-out: MIC. For orientation: In agar dilution the substance is mixed into plates at graded concentrations.
Assay [2] has as its system Staphylococcus aureus X400. In words: microbe, parasite or virus in culture.
Assay [3] has as its system Staphylococcus aureus X1.1. In words: In vitro antibacterial activity, standard agar-dilution assay. The settings on record: Staphylococcus aureus X1.1; agar dilution; read-out: MIC.
For the next assay, the system named is Escherichia coli EC14. Described as above. The settings on record: Escherichia coli EC14; agar dilution; read-out: MIC.
Assay [4] has as its system Haemophilus influenzae C.L. The description is as above. As to conditions: Haemophilus influenzae C.L.; agar dilution; read-out: MIC.
The test system of assay [5] is Haemophilus influenzae 76. Described as above. The settings on record: Haemophilus influenzae 76; agar dilution; read-out: MIC.
In assay [6] the test system is Staphylococcus aureus S13E. In words: microbe, parasite or virus in culture.
In another assay the test system is Escherichia coli N10. In words: In vitro antibacterial activity, standard agar-dilution assay. As to conditions: Escherichia coli N10; agar dilution; read-out: MIC.
In assay [7] the test system is Streptococcus sp group D 2041. Described as above. As to conditions: GROUPD2041; Streptococcus sp group D 2041; agar dilution; read-out: MIC.
Assay [8] deals with Staphylococcus aureus V41. Described as above. As to conditions: Staphylococcus aureus V41; agar dilution; read-out: MIC.
Assay [9] concerns Klebsiella pneumoniae X68. The description is as above. The settings on record: Klebsiella pneumoniae X68; agar dilution; read-out: MIC.
The test system of the next assay is Escherichia coli TEM. Described as above.
Assay [10] deals with Trichophyton mentagrophytes. The assay is described as follows: In vitro antifungal activity, standard disc-plate assay. The settings on record: disc-plate assay, read-out: MIC.
Assay [11] relates to Staphylococcus epidermidis EPI1. In words: In vitro antibacterial activity, standard agar-dilution assay. As to conditions: Staphylococcus epidermidis EPI1; agar dilution; read-out: MIC.
Assay [12] has as its system Staphylococcus epidermidis 222. The description is as above. As to conditions: Staphylococcus epidermidis 222; agar dilution; read-out: MIC.
A further assay relates to Proteus morganii PR15. Described as above. As to conditions: Morganella morganii; Proteus morganii PR15; agar dilution; read-out: MIC.
The subject of assay [13] is Klebsiella pneumoniae KAE. The assay is described as above. The settings on record: Klebsiella pneumoniae KAE; agar dilution; read-out: MIC.
Assay [14] concerns Streptococcus faecium ATCC 9790. Described as above. As to conditions: Enterococcus faecium, ATCC9790; Streptococcus faecium ATCC 9790; agar dilution; read-out: MIC.
Another assay has as its system Shigella sonnei N9. Described as above. The settings on record: Shigella sonnei N9; agar dilution; read-out: MIC.
For assay [15], the system named is Klebsiella pneumoniae X26. Described as above. The settings on record: Klebsiella pneumoniae X26; agar dilution; read-out: MIC.
A further assay concerns Salmonella sp. X514. The assay is described as above. As to conditions: Salmonella sp. X514; agar dilution; read-out: MIC.
Another assay relates to Candida albicans. In words: In vitro antifungal activity, standard disc-plate assay. The settings on record: disc-plate assay, read-out: MIC.
For assay [16], the system named is Streptococcus pyogenes C203. The assay is described as follows: In vitro antibacterial activity, standard agar-dilution assay. As to conditions: Streptococcus pyogenes C203; agar dilution; read-out: MIC.
Assay [17] deals with Acinetobacter calcoaceticus AC12. The description is as above. The settings on record: Acinetobacter calcoaceticus AC12; agar dilution; read-out: MIC.

Consider `[C-]#[N+][C@@H]1[C@@H]2c3c[nH]c4cccc(c34)C(C)(C)[C@H]2C[C@@H](Cl)[C@]1(C)C=C` [Compound 7, Hapalindole G], for which the MIC in [1] was 16 µg/mL (≈ 47.2 µM); in assay [2], 64 µg/mL (≈ 189 µM); in assay [3], 64 µg/mL (≈ 189 µM); in the assay with Escherichia coli EC14 it was > 64 µg/mL; in assay [4], 64 µg/mL (≈ 189 µM); in assay [5], 64 µg/mL (≈ 189 µM). Also, the MIC in assay [6] was 64 µg/mL (≈ 189 µM); in the assay with Escherichia coli N10, > 64 µg/mL; in assay [7], > 64 µg/mL; in assay [8], 64 µg/mL (≈ 189 µM); in assay [9], > 64 µg/mL; with Escherichia coli TEM, > 64 µg/mL. In addition, the MIC in assay [10] is 2.5 µg/mL (≈ 7.38 µM); in [11] it was 8 µg/mL (≈ 23.6 µM); in assay [12], 16 µg/mL (≈ 47.2 µM); in the assay with Proteus morganii PR15, > 64 µg/mL; in [13], > 64 µg/mL; in [14], > 64 µg/mL. Also, the MIC was > 64 µg/mL in the assay on Shigella sonnei N9; 64 µg/mL (≈ 189 µM) in assay [15]; > 64 µg/mL in the assay on Salmonella sp. X514; 10 µg/mL (≈ 29.5 µM) with Candida albicans; 16 µg/mL (≈ 47.2 µM) in assay [16]; 16 µg/mL (≈ 47.2 µM) in assay [17].
Turning to `[C-]#[N+][C@@H]1[C@H]2c3c[nH]c4cccc(c34)C(C)(C)[C@@H]2CC[C@]1(C)C=C` [Compound 8, Hapalindole H], the MIC was 32 µg/mL (≈ 105 µM) in [1]; > 64 µg/mL in assay [2]; > 64 µg/mL in assay [3]; > 64 µg/mL with Escherichia coli EC14; > 64 µg/mL in assay [4]; > 64 µg/mL in assay [5]. For the same compound, the MIC (in assay [6]; in the assay on Escherichia coli N10; in assay [7]; in assay [8]; in assay [9]; in the assay with Escherichia coli TEM) was > 64 µg/mL in each case. Further, the MIC in [10] was 1.25 µg/mL (≈ 4.11 µM); in assay [11], 32 µg/mL (≈ 105 µM); in assay [12], 32 µg/mL (≈ 105 µM); in the assay with Proteus morganii PR15, > 64 µg/mL; in [13], > 64 µg/mL; in assay [14] it was > 64 µg/mL. The MIC in the assay on Shigella sonnei N9 is > 64 µg/mL; in assay [15], > 64 µg/mL; in the assay with Salmonella sp. X514 it was > 64 µg/mL; with Candida albicans it was 10 µg/mL (≈ 32.8 µM); in assay [16], 32 µg/mL (≈ 105 µM); in assay [17] it was 16 µg/mL (≈ 52.6 µM).
As to `C=C[C@@]1(C)[C@H](Cl)C[C@H](C(=C)C)[C@@H](c2c[nH]c3ccccc23)[C@H]1N=C=S` [Compound 6, Hapalindole F], the MIC is > 64 µg/mL in [1]; 32 µg/mL (≈ 86.3 µM) in [2]; 16 µg/mL (≈ 43.1 µM) in [3]; > 64 µg/mL in the assay on Escherichia coli EC14; > 64 µg/mL in assay [4]; > 64 µg/mL in [5]. The MIC in [6] is 32 µg/mL (≈ 86.3 µM); with Escherichia coli N10 it was > 64 µg/mL; in assay [7] it was 16 µg/mL (≈ 43.1 µM); in [8] it was > 64 µg/mL; in assay [9] it was > 64 µg/mL; against Escherichia coli TEM it was > 64 µg/mL. In addition, the MIC in [10] was > 20 µg/mL; in assay [11] it was 4 µg/mL (≈ 10.8 µM); in [12], 4 µg/mL (≈ 10.8 µM); with Proteus morganii PR15, > 64 µg/mL; in assay [13], > 64 µg/mL; in assay [14] it was 64 µg/mL (≈ 173 µM). Further, the MIC with Shigella sonnei N9 is > 64 µg/mL; in assay [15], > 64 µg/mL; with Salmonella sp. X514 it was > 64 µg/mL; with Candida albicans it was > 20 µg/mL; in assay [16], > 64 µg/mL; in [17] it was > 64 µg/mL.
